Experiments:
[1] = test system: human acute myeloid leukemia MV-4-11 cells; experiment: Assay of cell proliferation (CellTiter-Glo); assay type: cell-based; conditions: MV4-11, 144 h, 6 days, read-out: MV-4-11 IC50 of cell proliferation inhibitory activity
Summary of the method: (§1)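 Cells seeded per line at growth-adapted densities, treated 6 days at 37 °C/5% CO2 with nine 3-fold dilutions (10 µM to 0.1 nM final, 0.5% DMSO). Viability by CellTiter-Glo luminescence; IC50 from four-parameter fit.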

[2] = test system: human gastric cancer MKN1 cells; experiment: Assay of cell proliferation (CellTiter-Glo); assay type: cell-based; conditions: Homo sapiens, MKN-1, 144 h; MNK1, 6 days; read-out: MKN1 IC50 of cell proliferation inhibitory activity
Summary of the method: as §1

[3] = test system: human breast cancer HCC1806 cells; experiment: Assay of cell proliferation (CellTiter-Glo); assay type: cell-based; conditions: Homo sapiens, 144 h, 6 days, read-out: HCC1806 IC50 of cell proliferation inhibitory activity
Summary of the method: as §1

CDK9/cyclin T1 = CDK9/cyclin T1 (Homo sapiens, UniProt P50750); experiment: Assay of kinase activity (ADP-Glo); assay type: biochemical; conditions: kinase inhibitory activity
Summary of the method: (§2)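 Human CDK6/cyclin D3 and CDK9/cyclin T1 preincubated 10 min at 25 °C with compound in 50 mM Hepes, 10 mM MgCl2, 0.01% Brij35, 2 mM DTT, then reacted 60 min at 25 °C with substrate and ATP. ADP formed measured by ADP-Glo luminescence; IC50 from nonlinear concentration-response fitting.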

CDK6/cyclin D3 = CDK6/cyclin D3 (Homo sapiens, UniProt Q00534); experiment: Assay of kinase activity (ADP-Glo); assay type: biochemical; conditions: kinase inhibitory activity
Summary of the method: as §2

CDK4/cyclin D1 = CDK4/cyclin D1 (Homo sapiens, UniProt P11802); experiment: Assay of kinase activity (ADP-Glo); assay type: biochemical; conditions: kinase inhibitory activity
Summary of the method: (§3)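 Kinase preincubated 10 min with compound in 50 mM Hepes, 10 mM MgCl2, 0.01% Brij35, 2 mM DTT, then substrate/ATP added for 60 min at 25 °C. ADP formed measured by ADP-Glo luminescence; IC50 by nonlinear concentration-response fitting.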

CDK2/cyclin E = CDK2/cyclin E (Homo sapiens, UniProt P24941); experiment: Assay of kinase activity (ADP-Glo); assay type: biochemical; conditions: kinase inhibitory activity, read-out: CDK2/E1 IC50
Summary of the method: as §3

[4] = test system: Human ovarian cancer OVCAR3 cells; experiment: Assay of cell proliferation (CellTiter-Glo); assay type: cell-based; conditions: Homo sapiens, OVCAR-3, 144 h, 6 days, read-out: OVCAR3 IC50 of cell proliferation inhibitory activity
Summary of the method: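 OVCAR3 cells, 2000/well in RPMI 1640 with 20% FBS, treated with nine 3-fold dilutions from 10 µM to 0.1 nM (0.5% DMSO) for 6 days at 37 °C. Viability by CellTiter-Glo luminescence; IC50 by four-parameter fit.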

Chain of CDK9/cyclin T1 (P50750 whole entry, species assumed): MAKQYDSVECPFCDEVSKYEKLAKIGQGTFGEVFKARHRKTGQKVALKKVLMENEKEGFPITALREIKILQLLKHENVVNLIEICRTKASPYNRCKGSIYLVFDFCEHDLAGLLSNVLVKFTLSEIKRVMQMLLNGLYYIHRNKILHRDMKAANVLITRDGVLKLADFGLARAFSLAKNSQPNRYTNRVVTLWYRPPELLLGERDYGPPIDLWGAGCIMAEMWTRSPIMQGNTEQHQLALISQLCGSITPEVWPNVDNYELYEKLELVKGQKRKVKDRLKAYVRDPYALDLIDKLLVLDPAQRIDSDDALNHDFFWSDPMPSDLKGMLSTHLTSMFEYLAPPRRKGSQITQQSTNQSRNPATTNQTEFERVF
Chain of CDK9/cyclin T1 (O60563 whole entry partner, species assumed): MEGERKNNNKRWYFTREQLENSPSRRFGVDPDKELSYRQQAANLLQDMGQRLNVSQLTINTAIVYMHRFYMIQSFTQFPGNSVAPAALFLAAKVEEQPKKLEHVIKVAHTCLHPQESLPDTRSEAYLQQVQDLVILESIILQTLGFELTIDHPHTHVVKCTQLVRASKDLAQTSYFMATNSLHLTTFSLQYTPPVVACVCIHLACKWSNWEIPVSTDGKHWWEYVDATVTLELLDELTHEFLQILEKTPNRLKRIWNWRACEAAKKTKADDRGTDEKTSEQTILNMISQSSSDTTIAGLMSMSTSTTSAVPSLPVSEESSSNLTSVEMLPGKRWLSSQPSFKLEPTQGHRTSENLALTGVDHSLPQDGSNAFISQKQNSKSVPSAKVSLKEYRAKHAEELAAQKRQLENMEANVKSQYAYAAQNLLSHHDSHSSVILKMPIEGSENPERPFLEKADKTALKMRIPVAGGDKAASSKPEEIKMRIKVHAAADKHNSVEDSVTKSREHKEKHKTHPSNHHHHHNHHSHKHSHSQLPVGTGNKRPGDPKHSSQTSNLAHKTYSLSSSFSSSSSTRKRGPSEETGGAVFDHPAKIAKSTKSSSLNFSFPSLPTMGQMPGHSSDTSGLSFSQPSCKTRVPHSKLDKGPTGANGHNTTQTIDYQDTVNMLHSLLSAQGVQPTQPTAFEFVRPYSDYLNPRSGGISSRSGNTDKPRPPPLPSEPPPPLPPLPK
Chain of CDK6/cyclin D3 (Q00534 whole entry, species assumed): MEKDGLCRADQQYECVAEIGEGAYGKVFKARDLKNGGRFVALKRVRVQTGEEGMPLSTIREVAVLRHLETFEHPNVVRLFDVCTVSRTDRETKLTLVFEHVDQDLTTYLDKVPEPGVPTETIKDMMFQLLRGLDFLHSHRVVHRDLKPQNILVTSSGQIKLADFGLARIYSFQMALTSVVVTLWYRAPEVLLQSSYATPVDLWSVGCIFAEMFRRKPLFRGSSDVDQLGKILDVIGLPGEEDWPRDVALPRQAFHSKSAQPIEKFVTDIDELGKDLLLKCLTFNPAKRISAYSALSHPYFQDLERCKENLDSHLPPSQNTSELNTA
Chain of CDK6/cyclin D3 (P30281 whole entry partner, species assumed): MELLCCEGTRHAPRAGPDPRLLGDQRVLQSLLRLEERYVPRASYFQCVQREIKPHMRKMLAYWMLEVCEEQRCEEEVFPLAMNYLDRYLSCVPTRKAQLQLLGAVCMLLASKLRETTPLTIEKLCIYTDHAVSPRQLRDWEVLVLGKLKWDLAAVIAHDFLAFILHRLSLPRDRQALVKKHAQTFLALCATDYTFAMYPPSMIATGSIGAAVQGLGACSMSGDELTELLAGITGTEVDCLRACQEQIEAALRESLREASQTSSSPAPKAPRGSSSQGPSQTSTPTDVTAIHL
Chain of CDK4/cyclin D1 (P11802 whole entry, species assumed): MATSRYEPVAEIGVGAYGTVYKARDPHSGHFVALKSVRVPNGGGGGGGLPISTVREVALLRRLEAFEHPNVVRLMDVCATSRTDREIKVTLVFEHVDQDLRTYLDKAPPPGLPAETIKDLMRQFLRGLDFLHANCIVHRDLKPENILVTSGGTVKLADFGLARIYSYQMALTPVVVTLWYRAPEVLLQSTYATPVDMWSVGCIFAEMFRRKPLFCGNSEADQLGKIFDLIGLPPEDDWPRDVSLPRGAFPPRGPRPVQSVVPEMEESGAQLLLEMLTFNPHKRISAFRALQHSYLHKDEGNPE
Chain of CDK4/cyclin D1 (P24385 whole entry partner, species assumed): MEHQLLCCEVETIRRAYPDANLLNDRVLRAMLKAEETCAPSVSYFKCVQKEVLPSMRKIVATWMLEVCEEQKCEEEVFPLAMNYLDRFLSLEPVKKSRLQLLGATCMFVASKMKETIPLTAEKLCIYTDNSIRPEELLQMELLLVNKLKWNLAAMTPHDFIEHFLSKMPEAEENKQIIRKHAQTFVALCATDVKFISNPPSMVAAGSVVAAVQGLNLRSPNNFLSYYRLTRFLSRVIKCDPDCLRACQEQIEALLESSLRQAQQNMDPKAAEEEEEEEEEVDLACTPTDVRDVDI

Compound | IC50 [1] [nM] | IC50 [2] [nM] | IC50 [3] [nM] | IC50 (CDK9/cyclin T1) [nM] | IC50 (CDK6/cyclin D3) [nM] | IC50 (CDK4/cyclin D1) [nM] | IC50 (CDK2/cyclin E) [nM] | IC50 [4] [nM]
CC(C)n1nnc2ccc3cnc(Nc4ccc(C(=O)N5CCC(N)CC5)c(F)c4)nc3c21 [Example I-16, (4-Aminopiperidin-1-yl)(2-fluoro-4-((1-isopropyl-1H-[1,2,3]triazolo[4,5-H]quinazolin-8-yl)amino)phenyl)metha none] | 9 | 110 | 374 | 78 | 230 | 12 | 4 | 90
CC(C)n1nnc2ccc3cnc(Nc4ccc(C(=O)N5CCN[C@@H](C)C5)cc4)nc3c21 [Example I-20, (S)-(4-((1-Isopropyl-1H-[1,2,3]triazolo[4,5-H]quinazolin-8-yl)amino)phenyl)(3-methylpiperazin-1-yl)methanone] | 6 | 23 | 109 | 3 | 16 | 1 | 1 | 39
CC(C)n1nnc2ccc3cnc(Nc4ccc(C(=O)N5CC[C@H](F)C5)cc4)nc3c21 [Example I-1, (S)-(3-Fluoropyrrolidin-1-yl)(4-((1-isopropyl-1H-[1,2,3]triazolo[4,5-H]quinazolin-8-yl)amino)phenyl)methanone] | 17 | 45 | 223 | 9 | 13 | 2 | 0.2 | 119
C[C@@H](n1nnc2ccc3cnc(Nc4ccc(C(=O)N5CCNCC5)cc4)nc3c21)C(C)(C)O [Example I-56, (R)-(4-((1-(3-Hydroxy-3-methylbutan-2-yl)-1H-[1,2,3]triazolo[4,5-H]quinazolin-8-yl)amino)phenyl)(piperazin-1-yl)methanone] | 11 | 81 | 365 | 15 | 4 | 1 | 0.8 | 275
C[C@@]1(O)CCC[C@H]1n1nnc2ccc3cnc(Nc4ccc(C(=O)N5CCOCC5)cc4)nc3c21 [Example I-67, (4-((1-((1R,2R)-2-Hydroxy-2-methylcyclopentyl)-1H-[1,2,3]triazolo[4,5-H]quinazolin-8-yl)amino)phenyl)(morpholino)methanone] | 5 | 13 | 137 | 46 | 21 | 2 | 1 | 45
C[C@@H](n1nnc2ccc3cnc(Nc4ccc(C(=O)N5CC[C@H](N)C5)cc4)nc3c21)C(C)(C)O [Example I-54, ((S)-3-Aminopyrrolidin-1-yl)(4-((1-((R)-3-hydroxy-3-methylbutan-2-yl)-1H-[1,2,3]triazolo[4,5-h]quinazolin-8-yl)amino)phenyl)methanone] | 7 | 49 | 268 | 8 | 16 | 2 | 1 | 192
CC(C)n1nnc2ccc3cnc(Nc4ccc(C(=O)N5CC[C@@H](F)C5)cc4)nc3c21 [Example I-2, (R)-(3-Fluoropyrrolidin-1-yl)(4-((1-isopropyl-1H-[1,2,3]triazolo[4,5-H]quinazolin-8-yl)amino)phenyl)methanone] | 15 | 46 | 175 | 8 | 12 | 2 | 0.3 | 94
C[C@H](CO)n1nnc2ccc3cnc(Nc4ccc(C(=O)N5CCOCC5)cc4)nc3c21 [Example I-51, (R)-(4-((1-(1-Hydroxypropan-2-yl)-1H-[1,2,3]triazolo[4,5-H]quinazolin-8-yl)amino)phenyl)(morpholino)methanone] | 51 | 100 | 441 | 122 | 149 | 7 | 2 | 301
C[C@@H](n1nnc2ccc3cnc(Nc4ccc(C(=O)N5CCCNCC5)cc4)nc3c21)C(C)(C)O [Example I-60, (R)-(1,4-Diazepan-1-yl)(4-((1-(3-hydroxy-3-methylbutan-2-yl)-1H-[1,2,3]triazolo[4,5-H]quinazolin-8-yl)amino)phenyl)methanone] | 12 | 41 | 98 | 19 | 3 | 1 | 0.8 | 88
C[C@@H](n1nnc2ccc3cnc(Nc4ccc(C(=O)N5CCCN(C)CC5)cc4)nc3c21)C(C)(C)O [Example I-61, (R)-(4-((1-(3-Hydroxy-3-methylbutan-2-yl)-1H-[1,2,3]triazolo[4,5-H]quinazolin-8-yl)amino)phenyl)(4-methyl-1,4-diazepan-1-yl)methanone] | 4 | 8 | 8 | 16 | 2 | 1 | 0.9 | 11
C[C@@H](n1nnc2ccc3cnc(Nc4ccc(C(=O)N5CCOCC5)cc4)nc3c21)C(C)(C)O [Example I-58, (R)-(4-((1-(3-Hydroxy-3-methylbutan-2-yl)-1H-[1,2,3]triazolo[4,5-H]quinazolin-8-yl)amino)phenyl)(morpholino)methanone] | 19 | 90 | 656 | 19 | 9 | 2 | 1 | 313

Compounds with a lower IC50 [1], results first:

IC50 [1] [nM] | IC50 [2] [nM] | IC50 [3] [nM] | IC50 (CDK9/cyclin T1) [nM] | IC50 (CDK6/cyclin D3) [nM] | IC50 (CDK4/cyclin D1) [nM] | IC50 (CDK2/cyclin E) [nM] | IC50 [4] [nM] | Compound
1 | 1 | 3 | 2 | 2 | 0.7 | 0.06 | 2 | CN1CCCN(C(=O)c2ccc(Nc3ncc4ccc5nnn([C@@H]6CCC[C@@]6(C)O)c5c4n3)cc2)CC1 [Example I-70, (4-((1-((1,2R)-2-hydroxy-2-methylcyclopentyl)-1H-[1,2,3]triazolo[4,5-H]quinazolin-8-yl)amino)phenyl)(4-methyl-1,4-diazepan-1-yl)methanone]
3 | 11 | 53 | 2 | 15 | 1 | 0.2 | 26 | CC(C)N[C@@H]1CCN(C(=O)c2ccc(Nc3ncc4ccc5nnn(C(C)C)c5c4n3)cc2)C1 [Example I-9, (R)-(4-((1-Isopropyl-1H-[1,2,3]triazolo[4,5-H]quinazolin-8-yl)amino)phenyl)(3-(isopropylamino)pyrrolidin-1-yl)methanone]
2 | 7 | 73 | 2 | 3 | 0.5 | 0.06 | 26 | CN[C@H]1CCN(C(=O)c2ccc(Nc3ncc4ccc5nnn(C(C)C)c5c4n3)cc2)C1 [Example I-6, (S)-(4-((1-Isopropyl-1H-[1,2,3]triazolo[4,5-H]quinazolin-8-yl)amino)phenyl)(3-(methylamino)pyrrolidin-1-yl)methanone]
2 | 3 | 12 | 3 | 4 | 0.6 | 0.1 | 7 | CN(C)[C@H]1CCN(C(=O)c2ccc(Nc3ncc4ccc5nnn([C@@H]6CCC[C@@]6(C)O)c5c4n3)cc2)C1 [Example I-64, ((S)-3-(Dimethylamino)pyrrolidin-1-yl)(4-((1-((1R,2R)-2-hydroxy-2-methylcyclopentyl)-1H-[1,2,3]triazolo[4,5-H]quinazolin-8-yl)amino)phenyl)methanone]
1 | 1 | 15 | 3 | 3 | 0.6 | 0.08 | 6 | CC(C)N[C@H]1CCN(C(=O)c2ccc(Nc3ncc4ccc5nnn([C@@H]6CCC[C@@]6(C)O)c5c4n3)cc2)C1 [Example I-63, (4-((1-((1R,2R)-2-Hydroxy-2-methylcyclopentyl)-1H-[1,2,3]triazolo[4,5-H]quinazolin-8-yl)amino)phenyl)((S)-3-(isopropylamino)pyrrolidin-1-yl)methanone]
3 | 6 | 20 | 2 | 3 | 0.5 | 0.05 | 15 | C[C@@]1(O)CCC[C@H]1n1nnc2ccc3cnc(Nc4ccc(C(=O)N5CCCNCC5)cc4)nc3c21 [Example I-69, (1,4-diazepan-1-yl)(4-((1-((1R,2R)-2-hydroxy-2-methylcyclopentyl)-1H-[1,2,3]triazolo[4,5-H]quinazolin-8-yl)amino)phenyl)methanone]

From patent EP4711369A1, “1H-[1,2,3]TRIAZOLO[4,5-H]QUINAZOLINE COMPOUNDS AS PROTEIN KINASE INHIBITORS” (Chengdu Cynogen Bio-Pharmaceutical Technology Co., Ltd., priority 2023, dated 2024)
